Measured values taken from patent US12275731B2, “Azaindole inhibitors of wild-type and mutant forms of LRRK2” (DANA-FARBER CANCER INSTITUTE, INC., priority 2018, dated 2025).

Legend:
Test in all cases: KinomeScan profiling
Type in all cases: binding
AKT2 = biological target: T1, AKT2 (Homo sapiens, UniProt P31751); conditions: AKT2, 1 μM; read-out: % control
T1 construct: purchased KinomeScan®
Outline: (§1)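 Test agents were profiled at a single concentration of 1 μM (DMSO vehicle) on a near-complete set of 468 kinases. Signal is reported relative to vehicle (100%) and a fully displacing control (0%).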

CTK = biological target: T2, CTK (Homo sapiens, UniProt P42679); conditions: read-out: % control
T2 sequence (P42679 1-507): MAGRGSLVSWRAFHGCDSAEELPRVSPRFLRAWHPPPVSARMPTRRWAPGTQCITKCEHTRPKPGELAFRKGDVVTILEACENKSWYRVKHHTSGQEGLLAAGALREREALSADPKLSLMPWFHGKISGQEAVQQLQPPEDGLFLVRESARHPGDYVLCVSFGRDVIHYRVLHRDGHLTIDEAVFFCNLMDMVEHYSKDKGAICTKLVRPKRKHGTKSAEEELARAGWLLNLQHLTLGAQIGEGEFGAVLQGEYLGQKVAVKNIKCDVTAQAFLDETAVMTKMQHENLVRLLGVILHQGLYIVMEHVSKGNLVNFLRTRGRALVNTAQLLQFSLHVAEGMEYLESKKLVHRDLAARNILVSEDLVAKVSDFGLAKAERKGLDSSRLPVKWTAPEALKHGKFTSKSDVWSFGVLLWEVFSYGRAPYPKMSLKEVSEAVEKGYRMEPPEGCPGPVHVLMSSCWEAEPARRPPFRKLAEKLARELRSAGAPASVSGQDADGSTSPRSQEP
Outline: as §1

MAP3K3 = biological target: T3, MAP3K3 (Homo sapiens, UniProt Q99759); conditions: MAP3K3, 1 μM; read-out: % control
T3 sequence (Q99759 1-626): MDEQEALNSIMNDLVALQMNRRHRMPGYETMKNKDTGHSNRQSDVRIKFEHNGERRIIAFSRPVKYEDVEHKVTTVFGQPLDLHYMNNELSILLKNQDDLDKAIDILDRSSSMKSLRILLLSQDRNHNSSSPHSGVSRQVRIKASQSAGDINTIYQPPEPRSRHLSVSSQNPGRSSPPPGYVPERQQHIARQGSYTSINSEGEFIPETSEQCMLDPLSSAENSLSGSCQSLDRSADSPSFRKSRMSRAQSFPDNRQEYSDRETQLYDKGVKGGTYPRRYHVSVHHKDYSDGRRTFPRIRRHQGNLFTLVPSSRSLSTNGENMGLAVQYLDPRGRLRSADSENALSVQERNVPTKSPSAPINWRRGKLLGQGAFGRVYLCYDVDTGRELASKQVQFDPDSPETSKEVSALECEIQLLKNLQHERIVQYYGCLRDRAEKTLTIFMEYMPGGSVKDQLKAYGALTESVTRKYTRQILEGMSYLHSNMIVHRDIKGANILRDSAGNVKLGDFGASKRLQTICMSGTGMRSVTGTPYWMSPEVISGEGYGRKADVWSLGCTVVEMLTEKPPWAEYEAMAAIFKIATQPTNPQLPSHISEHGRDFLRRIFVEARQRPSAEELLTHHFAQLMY
Outline: as §1

MET(M1250T) = MET(M1250T) (Homo sapiens, UniProt P08581, M1250T); conditions: read-out: % control
MET(M1250T), sequence (P08581 25-1390 M1250T): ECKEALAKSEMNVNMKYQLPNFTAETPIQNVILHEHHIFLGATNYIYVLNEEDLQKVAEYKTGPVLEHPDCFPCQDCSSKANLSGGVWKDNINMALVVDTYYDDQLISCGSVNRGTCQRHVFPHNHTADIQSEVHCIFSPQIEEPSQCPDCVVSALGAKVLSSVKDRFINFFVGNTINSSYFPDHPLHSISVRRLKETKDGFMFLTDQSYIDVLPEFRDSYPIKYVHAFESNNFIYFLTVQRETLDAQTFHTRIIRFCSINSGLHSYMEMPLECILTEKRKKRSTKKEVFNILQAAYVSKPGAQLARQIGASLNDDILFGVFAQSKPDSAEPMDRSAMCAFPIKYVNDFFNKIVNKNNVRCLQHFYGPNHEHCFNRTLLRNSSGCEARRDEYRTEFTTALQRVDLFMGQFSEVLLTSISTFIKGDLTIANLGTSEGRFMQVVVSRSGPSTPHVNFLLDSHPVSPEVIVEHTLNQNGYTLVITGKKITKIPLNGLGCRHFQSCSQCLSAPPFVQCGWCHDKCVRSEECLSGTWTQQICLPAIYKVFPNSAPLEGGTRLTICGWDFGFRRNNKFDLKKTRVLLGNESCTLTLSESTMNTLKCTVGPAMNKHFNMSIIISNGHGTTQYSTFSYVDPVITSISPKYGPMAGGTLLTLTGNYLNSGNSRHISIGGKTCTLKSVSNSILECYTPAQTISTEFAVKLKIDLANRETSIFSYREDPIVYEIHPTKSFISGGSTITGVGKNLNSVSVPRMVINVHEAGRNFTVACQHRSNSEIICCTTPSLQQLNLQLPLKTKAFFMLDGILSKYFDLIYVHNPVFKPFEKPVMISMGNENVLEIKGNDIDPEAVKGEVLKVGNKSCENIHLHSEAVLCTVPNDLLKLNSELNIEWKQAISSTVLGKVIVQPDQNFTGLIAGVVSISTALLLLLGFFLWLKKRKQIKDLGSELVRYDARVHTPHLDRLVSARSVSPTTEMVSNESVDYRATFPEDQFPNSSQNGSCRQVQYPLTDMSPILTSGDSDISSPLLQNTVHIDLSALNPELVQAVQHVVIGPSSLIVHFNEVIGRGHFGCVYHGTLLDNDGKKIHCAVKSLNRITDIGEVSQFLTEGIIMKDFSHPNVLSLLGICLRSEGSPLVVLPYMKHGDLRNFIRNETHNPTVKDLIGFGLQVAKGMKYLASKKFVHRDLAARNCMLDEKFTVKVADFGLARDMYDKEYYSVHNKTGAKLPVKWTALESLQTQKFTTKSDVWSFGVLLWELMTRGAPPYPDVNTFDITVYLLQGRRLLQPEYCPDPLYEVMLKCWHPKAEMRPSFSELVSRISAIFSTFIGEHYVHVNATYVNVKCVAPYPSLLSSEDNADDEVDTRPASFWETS
Outline: as §1

[1] = biological target: T4, TYK2(JH1domain-catalytic) (Homo sapiens, UniProt P29597); conditions: read-out: % control
T4 construct: tyrosine kinase 2 (TYK2)(JH1domain-catalytic)
T4 sequence (P29597 897-1176 limits assumed): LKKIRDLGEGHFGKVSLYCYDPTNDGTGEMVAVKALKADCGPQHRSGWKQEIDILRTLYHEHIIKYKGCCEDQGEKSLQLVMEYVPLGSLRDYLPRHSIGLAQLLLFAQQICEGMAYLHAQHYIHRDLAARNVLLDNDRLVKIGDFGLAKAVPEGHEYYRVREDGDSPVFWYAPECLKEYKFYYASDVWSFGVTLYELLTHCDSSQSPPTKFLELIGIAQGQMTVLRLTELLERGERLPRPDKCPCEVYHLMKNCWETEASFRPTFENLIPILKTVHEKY
Outline: as §1

TYRO3 = biological target: T5, TYRO3 (Homo sapiens, UniProt Q06418); conditions: TYRO3, 1 μM; read-out: % control
T5 sequence (Q06418 41-890): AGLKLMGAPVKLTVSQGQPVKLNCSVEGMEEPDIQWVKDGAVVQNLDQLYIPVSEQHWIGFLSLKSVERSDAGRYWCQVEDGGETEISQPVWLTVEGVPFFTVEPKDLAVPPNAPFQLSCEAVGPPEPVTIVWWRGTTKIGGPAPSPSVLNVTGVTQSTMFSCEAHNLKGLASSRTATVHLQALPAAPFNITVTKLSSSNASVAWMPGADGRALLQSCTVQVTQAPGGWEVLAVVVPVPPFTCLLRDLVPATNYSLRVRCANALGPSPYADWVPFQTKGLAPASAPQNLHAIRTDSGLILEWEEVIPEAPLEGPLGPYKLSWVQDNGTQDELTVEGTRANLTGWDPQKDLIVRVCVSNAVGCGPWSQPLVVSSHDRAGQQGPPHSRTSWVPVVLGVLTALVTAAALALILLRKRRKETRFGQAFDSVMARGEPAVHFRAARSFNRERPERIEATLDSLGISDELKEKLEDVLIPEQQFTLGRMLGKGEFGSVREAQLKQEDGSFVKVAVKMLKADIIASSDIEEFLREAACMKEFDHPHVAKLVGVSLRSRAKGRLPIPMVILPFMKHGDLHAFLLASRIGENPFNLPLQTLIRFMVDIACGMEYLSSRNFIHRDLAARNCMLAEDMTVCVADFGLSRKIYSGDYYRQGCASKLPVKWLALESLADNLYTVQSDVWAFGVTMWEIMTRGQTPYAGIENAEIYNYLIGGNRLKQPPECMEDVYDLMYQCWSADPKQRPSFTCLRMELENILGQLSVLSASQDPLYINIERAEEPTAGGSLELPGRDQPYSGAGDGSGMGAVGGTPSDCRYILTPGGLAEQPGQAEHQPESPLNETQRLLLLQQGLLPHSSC
Outline: as §1

T1 sequence (P31751 whole entry): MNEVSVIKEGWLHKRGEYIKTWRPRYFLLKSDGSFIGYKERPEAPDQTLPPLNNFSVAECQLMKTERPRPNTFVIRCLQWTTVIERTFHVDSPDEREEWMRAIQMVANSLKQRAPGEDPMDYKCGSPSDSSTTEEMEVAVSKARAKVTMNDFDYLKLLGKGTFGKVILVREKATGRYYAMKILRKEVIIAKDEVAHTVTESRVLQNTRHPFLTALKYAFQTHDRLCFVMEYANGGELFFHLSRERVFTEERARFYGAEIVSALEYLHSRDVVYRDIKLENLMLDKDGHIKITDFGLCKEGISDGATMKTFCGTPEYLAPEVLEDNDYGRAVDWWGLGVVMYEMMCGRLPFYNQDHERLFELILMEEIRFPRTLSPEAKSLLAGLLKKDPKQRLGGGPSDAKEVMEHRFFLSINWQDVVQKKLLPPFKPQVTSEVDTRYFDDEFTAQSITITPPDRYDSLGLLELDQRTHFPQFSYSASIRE

| Compound | remaining binding at 1 µM (AKT2) [%] | remaining binding at 1 µM (CTK) [%] | remaining binding at 1 µM (MAP3K3) [%] | remaining binding at 1 µM (MET(M1250T)) [%] | remaining binding at 1 µM [1] [%] | remaining binding at 1 µM (TYRO3) [%] |
| --- | --- | --- | --- | --- | --- | --- |
| O=C(c1ccc(-c2cnc3[nH]cc(Cl)c3c2NC2CCCC2)cc1)N1CCC(N2CCOCC2)CC1 [Compound 101, (4-(3-chloro-4-(cyclopentylamino)-1H-pyrrolo[2,3-b]pyridin-5-yl)phenyl)(4-morpholinopiperidin-1-yl)methanone] | 84 | 95 | 47 | 23 | 100 | 56 |
| CNc1c(-c2cnn([C@H]3CCN(C(C)=O)C[C@@H]3F)c2)cnc2[nH]cc(Cl)c12 [Compound 77, 1-((3S,4S)-4-(4-(3-chloro-4-(methylamino)-1H-pyrrolo[2,3-b]pyridin-5-yl)-1H-pyrazol-1-yl)-3-fluoropiperidin-1-yl)ethan-1-one] | 100 | 97 | 44 | 49 | 15 | 100 |
| CNc1c(-c2ccc(C(=O)N3CCC(N4CCOCC4)CC3)cc2)cnc2[nH]cc(Cl)c12 [Compound 96, (4-(3-chloro-4-(methylamino)-1H-pyrrolo[2,3-b]pyridin-5-yl)phenyl)(4-morpholinopiperidin-1-yl)methanone] | 100 | 100 | 51 | 78 | 29 | 100 |
